# Source: PubChem BioAssay (NCI)
#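 How tested: cells in 96-well plates exposed to compound for 48 hours at five concentrations. TGI is the concentration that stops growth completely.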
# How the values were obtained:
# Assay in all cases: NCI tumour cell line growth inhibition, 48 h
# [1] = test system: KM20L2 colon
# [2] = test system: HL-60(TB) leukemia
# [3] = test system: LOX IMVI melanoma
# [4] = test system: COLO 205 colon
# [5] = test system: HOP-18 NSCLC
# [6] = test system: SR leukemia
# [7] = test system: SNB-75 CNS
# [8] = test system: RPMI-8226 leukemia
# [9] = test system: DLD-1 colon
# [10] = test system: M19-MEL melanoma
# [11] = test system: SK-MEL-28 melanoma
# [12] = test system: RXF 393 renal
# [13] = test system: CCRF-CEM leukemia
# [14] = test system: U251 CNS
# [15] = test system: NCI-H226 lung
# [16] = test system: SW-620 colon
# [17] = test system: HT29 colon
# [18] = test system: OVCAR-5 ovarian
# [19] = test system: OVCAR-4 ovarian
# [20] = test system: UACC-62 melanoma
# [21] = test system: DMS 114 small cell lung
# [22] = test system: OVCAR-3 ovarian
# [23] = test system: SNB-19 CNS
# [24] = test system: MOLT-4 leukemia
# [25] = test system: UO-31 renal
# [26] = test system: TK-10 renal
# [27] = test system: HCT-116 colon
# [28] = test system: A549 NSCLC
# [29] = test system: NCI-H522 lung
# [30] = test system: M14 melanoma
# [31] = test system: LXFL 529 NSCLC
# [32] = test system: NCI-H460 lung
# [33] = test system: MALME-3M melanoma
# [34] = test system: ACHN renal
# [35] = test system: A498 renal
# [36] = test system: SN12C renal
# [37] = test system: HCC-2998 colon
# [38] = test system: HCT-15 colon
# [39] = test system: SK-OV-3 ovarian
# [40] = test system: CAKI-1 renal
# [41] = test system: SK-MEL-5 melanoma
# [42] = test system: HOP-92 NSCLC
# [43] = test system: K-562 leukemia
# [44] = test system: SF-268 CNS
# [45] = test system: IGROV1 ovarian
# [46] = test system: HOP-62 NSCLC
# [47] = test system: DMS 273 small cell lung
# [48] = test system: SNB-78 CNS
# [49] = test system: KM12 colon
# [50] = test system: RXF-631 renal
# [51] = test system: SK-MEL-2 melanoma
# [52] = test system: UACC-257 melanoma
# [53] = test system: SF-295 CNS
# [54] = test system: SF-539 CNS
# [55] = test system: 786-0 renal
# [56] = test system: OVCAR-8 ovarian
# [57] = test system: NCI-H23 lung
# [58] = test system: MDA-MB-435
# [59] = test system: MDA-N
# [60] = test system: MCF7 breast
# [61] = test system: DU-145 prostate
# [62] = test system: BT-549 breast
# [63] = test system: HS 578T breast
# [64] = test system: NCI/ADR-RES ovarian
# [65] = test system: EKVX NSCLC
# [66] = test system: MDA-MB-231 breast
# [67] = test system: PC-3 prostate
# [68] = test system: T-47D breast
smiles,measurement,setting,value
Nc1nc2c3c(ncn3CC(O)CO2)n1 (centres undefined),TGI,[1],> 100 µM
same,TGI,[2],> 100 µM
same,TGI,[3],> 100 µM
same,TGI,[4],> 100 µM
same,TGI,[5],> 100 µM
same,TGI,[6],> 100 µM
same,TGI,[7],29 µM
same,TGI,[8],> 100 µM
same,TGI,[9],> 100 µM
same,TGI,[10],19.4 µM
same,TGI,[11],> 100 µM
same,TGI,[12],> 100 µM
same,TGI,[13],> 100 µM
same,TGI,[14],> 100 µM
same,TGI,[15],> 100 µM
same,TGI,[16],> 100 µM
same,TGI,[17],28.6 µM
same,TGI,[18],> 100 µM
same,TGI,[19],> 100 µM
same,TGI,[20],> 100 µM
same,TGI,[21],> 100 µM
same,TGI,[22],> 100 µM
same,TGI,[23],> 100 µM
same,TGI,[24],> 100 µM
same,TGI,[25],> 100 µM
same,TGI,[26],> 100 µM
same,TGI,[27],> 100 µM
same,TGI,[28],> 100 µM
same,TGI,[29],> 100 µM
same,TGI,[30],> 100 µM
same,TGI,[31],> 100 µM
same,TGI,[32],> 100 µM
same,TGI,[33],> 100 µM
same,TGI,[34],> 100 µM
same,TGI,[35],> 100 µM
same,TGI,[36],> 100 µM
same,TGI,[37],> 100 µM
same,TGI,[38],> 100 µM
same,TGI,[39],> 100 µM
same,TGI,[40],> 100 µM
same,TGI,[41],> 100 µM
same,TGI,[42],> 100 µM
same,TGI,[43],> 100 µM
same,TGI,[44],> 100 µM
same,TGI,[45],> 100 µM
same,TGI,[46],> 100 µM
same,TGI,[47],> 100 µM
same,TGI,[48],> 100 µM
same,TGI,[49],> 100 µM
same,TGI,[50],> 100 µM
same,TGI,[51],> 100 µM
same,TGI,[52],> 100 µM
same,TGI,[53],> 100 µM
same,TGI,[54],> 100 µM
same,TGI,[55],> 100 µM
same,TGI,[56],> 100 µM
same,TGI,[57],> 100 µM
CN1CCN(Cc2nc3cccc4c3c([n+]2[O-])-c2ccccc2-4)CC1,TGI,[1],> 100 µM
same,TGI,[2],> 100 µM
same,TGI,[3],> 51.5 µM
same,TGI,[4],> 59.7 µM
same,TGI,[58],34 µM
same,TGI,[5],> 100 µM
same,TGI,[59],> 100 µM
same,TGI,[6],31.8 µM
same,TGI,[7],66.6 µM
same,TGI,[8],> 74.4 µM
same,TGI,[9],> 100 µM
same,TGI,[10],> 100 µM
same,TGI,[11],> 62.6 µM
same,TGI,[12],25.9 µM
same,TGI,[13],> 82.8 µM
same,TGI,[14],> 64 µM
same,TGI,[15],> 68.1 µM
same,TGI,[16],> 100 µM
same,TGI,[17],> 61.1 µM
same,TGI,[18],> 100 µM
same,TGI,[19],> 84.4 µM
same,TGI,[20],> 56.4 µM
same,TGI,[21],> 100 µM
same,TGI,[22],> 100 µM
same,TGI,[23],> 100 µM
same,TGI,[24],> 69.4 µM
same,TGI,[25],66.4 µM
same,TGI,[60],84.9 µM
same,TGI,[26],> 100 µM
same,TGI,[27],> 100 µM
same,TGI,[28],> 51.3 µM
same,TGI,[29],> 48.5 µM
same,TGI,[30],> 61.1 µM
same,TGI,[31],> 100 µM
same,TGI,[32],> 100 µM
same,TGI,[33],> 50.2 µM
same,TGI,[34],> 68.7 µM
same,TGI,[61],32.1 µM
same,TGI,[35],> 53.1 µM
same,TGI,[36],> 100 µM
same,TGI,[37],> 100 µM
same,TGI,[62],> 100 µM
same,TGI,[38],> 100 µM
same,TGI,[39],> 100 µM
same,TGI,[63],97.1 µM
same,TGI,[64],48.3 µM
same,TGI,[40],96.9 µM
same,TGI,[41],49.9 µM
same,TGI,[65],> 100 µM
same,TGI,[42],> 73.7 µM
same,TGI,[43],> 100 µM
same,TGI,[66],44.3 µM
same,TGI,[44],> 66.5 µM
same,TGI,[67],48.6 µM
same,TGI,[45],> 84.2 µM
same,TGI,[46],> 100 µM
same,TGI,[47],> 100 µM
same,TGI,[48],> 100 µM
same,TGI,[49],> 66 µM
same,TGI,[50],> 100 µM
same,TGI,[68],76.9 µM
same,TGI,[51],> 54.3 µM
same,TGI,[52],> 64.1 µM
same,TGI,[53],> 100 µM
same,TGI,[54],> 88 µM
same,TGI,[55],> 100 µM
same,TGI,[56],37.3 µM
same,TGI,[57],> 61.7 µM
O=C1C2=C(C(c3ccccc3)=C1c1ccccc1)c1ccccc1C1(c3ccccc3)C2=C(O)C(c2ccccc2)=C1c1ccccc1 (centres undefined),TGI,[1],> 100 µM
same,TGI,[2],> 100 µM
same,TGI,[3],> 100 µM
same,TGI,[4],> 100 µM
same,TGI,[5],> 100 µM
same,TGI,[6],> 100 µM
same,TGI,[7],> 100 µM
same,TGI,[8],> 100 µM
same,TGI,[9],> 100 µM
same,TGI,[10],> 100 µM
same,TGI,[11],> 100 µM
same,TGI,[12],> 100 µM
same,TGI,[14],> 100 µM
same,TGI,[15],> 100 µM
same,TGI,[16],> 100 µM
same,TGI,[17],> 100 µM
same,TGI,[18],> 100 µM
same,TGI,[19],> 100 µM
same,TGI,[20],> 100 µM
same,TGI,[21],> 100 µM
same,TGI,[22],> 100 µM
same,TGI,[24],> 100 µM
same,TGI,[25],> 100 µM
same,TGI,[26],> 100 µM
same,TGI,[27],> 100 µM
same,TGI,[28],> 100 µM
same,TGI,[29],> 100 µM
same,TGI,[30],> 100 µM
same,TGI,[31],> 100 µM
same,TGI,[32],> 100 µM
same,TGI,[33],> 100 µM
same,TGI,[34],> 100 µM
same,TGI,[35],> 100 µM
same,TGI,[36],> 100 µM
same,TGI,[37],> 100 µM
same,TGI,[38],> 100 µM
same,TGI,[39],> 100 µM
same,TGI,[40],> 100 µM
same,TGI,[41],> 100 µM
same,TGI,[65],> 100 µM
same,TGI,[42],> 100 µM
same,TGI,[44],> 100 µM
same,TGI,[45],> 100 µM
same,TGI,[46],> 100 µM
same,TGI,[47],> 100 µM
same,TGI,[48],> 100 µM
same,TGI,[49],> 100 µM
same,TGI,[50],> 100 µM
same,TGI,[51],> 100 µM
same,TGI,[52],> 100 µM
same,TGI,[53],> 100 µM
same,TGI,[54],> 100 µM
same,TGI,[55],> 100 µM
same,TGI,[56],> 100 µM
same,TGI,[57],> 100 µM
CN(C)C(=S)/N=c1\ssc(=Nc2ccccc2)n1C,TGI,[1],> 100 µM
same,TGI,[2],> 100 µM
same,TGI,[3],> 100 µM
same,TGI,[5],> 100 µM
same,TGI,[6],> 100 µM
same,TGI,[7],44.7 µM
same,TGI,[8],> 100 µM
same,TGI,[9],> 100 µM
same,TGI,[10],> 100 µM
same,TGI,[11],> 100 µM
same,TGI,[12],> 100 µM
same,TGI,[13],> 100 µM
same,TGI,[14],> 100 µM
same,TGI,[15],> 100 µM
same,TGI,[16],> 100 µM
same,TGI,[17],> 100 µM
same,TGI,[18],> 100 µM
same,TGI,[19],> 100 µM
same,TGI,[20],> 100 µM
same,TGI,[21],> 100 µM
same,TGI,[23],> 100 µM
same,TGI,[24],> 100 µM
same,TGI,[25],> 100 µM
same,TGI,[26],> 100 µM
same,TGI,[27],> 100 µM
same,TGI,[28],> 100 µM
same,TGI,[30],> 100 µM
same,TGI,[31],> 100 µM
same,TGI,[32],> 100 µM
same,TGI,[33],> 100 µM
same,TGI,[34],> 100 µM
same,TGI,[35],> 100 µM
same,TGI,[36],> 100 µM
same,TGI,[37],> 100 µM
same,TGI,[38],> 100 µM
same,TGI,[39],> 100 µM
same,TGI,[40],> 100 µM
same,TGI,[65],> 100 µM
same,TGI,[42],> 100 µM
same,TGI,[43],> 100 µM
same,TGI,[44],> 100 µM
same,TGI,[45],> 100 µM
same,TGI,[46],> 100 µM
same,TGI,[47],> 100 µM
same,TGI,[48],> 100 µM
same,TGI,[49],> 100 µM
same,TGI,[50],> 100 µM
same,TGI,[51],> 100 µM
same,TGI,[52],> 100 µM
same,TGI,[53],> 100 µM
same,TGI,[54],> 100 µM
same,TGI,[55],> 100 µM
same,TGI,[56],> 100 µM
same,TGI,[57],> 100 µM
